Assay results as given in PubChem BioAssay AID248 (DTP/NCI, 2004).
Values joined by “and” are separate entries in the source; they are usually repeats but may differ in a detail not shown here. Equal values may be shown once. Toxic doses and inconclusive results are not listed. Rule as the data show it: active = T/C of 150% or more; inactive = T/C below 125%.

System: L1210 leukemia ip in BDF1 mice, survival T/C
Experiment: NCI In Vivo Anticancer Drug Screen. Data for tumor model L1210 Leukemia (intraperitoneal) in B6D2F1 (BDF1) mice
Details: endpoint: mean survival time, higher = longer survival
How it was run: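 In this screen, tumor-bearing mice given compound are compared to those given vehicle, and their survival values are reported as a treated-to-control quotient.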

[1] = dose: 25.0 mg/kg/injection, schedule: Q01DX009 (ip), vehicle: Klucel (hydroxypropylcellulose) (HPC)
[2] = dose: 50.0 mg/kg/injection, schedule: Q01DX009 (ip), vehicle: Klucel (hydroxypropylcellulose) (HPC)
[3] = dose: 100.0 mg/kg/injection, schedule: Q01DX009 (ip), vehicle: Klucel (hydroxypropylcellulose) (HPC)
[4] = dose: 100.0 mg/kg/injection, schedule: Q01DX009 (ip), vehicle: carboxymethylcellulose (CMC)
[5] = dose: 25.0 mg/kg/injection, schedule: Q04DX003 (ip), vehicle: saline with Tween-80
[6] = dose: 50.0 mg/kg/injection, schedule: Q01DX009 (ip), vehicle: saline with Tween-80
[7] = dose: 50.0 mg/kg/injection, schedule: Q04DX003 (ip), vehicle: saline with Tween-80
[8] = dose: 100.0 mg/kg/injection, schedule: Q04DX003 (ip), vehicle: saline with Tween-80
[9] = dose: 50.0 mg/kg/injection, schedule: Q01DX001 (ip), vehicle: saline
[10] = dose: 100.0 mg/kg/injection, schedule: Q01DX001 (ip), vehicle: saline
[11] = dose: 200.0 mg/kg/injection, schedule: Q01DX001 (ip), vehicle: saline
[12] = dose: 400.0 mg/kg/injection, schedule: Q01DX001 (ip), vehicle: saline

Measured: T/C

CCC(CC)CC1CN2CCc3cc(OC)c(OC)cc3C2CC1(O)CC (stereo not drawn)
inactive: dose: 3.12 mg/kg/injection, schedule: Q01DX009 (ip), vehicle: Klucel (hydroxypropylcellulose) (HPC) 93 % of control | dose: 6.25 mg/kg/injection, schedule: Q01DX009 (ip), vehicle: Klucel (hydroxypropylcellulose) (HPC) 97 % of control | dose: 12.5 mg/kg/injection, schedule: Q01DX009 (ip), vehicle: Klucel (hydroxypropylcellulose) (HPC) 109 % of control | [1] 119 % of control | dose: 25.0 mg/kg/injection, schedule: Q04DX003 (ip), vehicle: Klucel (hydroxypropylcellulose) (HPC) 115 % of control | [2] 97 % of control | dose: 50.0 mg/kg/injection, schedule: Q04DX003 (ip), vehicle: Klucel (hydroxypropylcellulose) (HPC) 99 % of control

CCCCOP(=O)(Nc1ccccc1)OCCCC
inactive: dose: 100.0 mg/kg/injection, schedule: Q04DX002 (sc), vehicle: olive oil, sesame oil, peanut oil 103 % of control | dose: 200.0 mg/kg/injection, schedule: Q04DX002 (sc), vehicle: olive oil, sesame oil, peanut oil 103 % of control | dose: 400.0 mg/kg/injection, schedule: Q04DX002 (sc), vehicle: olive oil, sesame oil, peanut oil 90 % of control

O=[N+]([O-])c1ccc(N/N=C2/C(=C/c3cccc4ccccc34)CCc3ccccc32)c([N+](=O)[O-])c1
inactive: [3] 91 % of control | dose: 200.0 mg/kg/injection, schedule: Q01DX009 (ip), vehicle: Klucel (hydroxypropylcellulose) (HPC) 89 % of control | dose: 400.0 mg/kg/injection, schedule: Q01DX009 (ip), vehicle: Klucel (hydroxypropylcellulose) (HPC) 91 % of control

OCCC(c1ccc(Cl)cc1)N1CCCCC1 (stereo not drawn)
inactive: dose: 100.0 mg/kg/injection, schedule: Q01DX001 (ip), vehicle: other 104 % of control

CCOC(=O)C1CC(Cl)c2c(ccc3cc(OC)ccc23)N1 (stereo not drawn)
inactive: dose: 25.0 mg/kg/injection, schedule: Q01DX001 (ip), vehicle: carboxymethylcellulose (CMC) 100 % of control | dose: 25.0 mg/kg/injection, schedule: Q01DX009 (ip), vehicle: carboxymethylcellulose (CMC) 98 % of control and 92 % of control | dose: 25.0 mg/kg/injection, schedule: Q04DX002 (ip), vehicle: carboxymethylcellulose (CMC) 93 % of control and 95 % of control | dose: 25.0 mg/kg/injection, schedule: Q04DX003 (ip), vehicle: carboxymethylcellulose (CMC) 97 % of control | dose: 50.0 mg/kg/injection, schedule: Q01DX001 (ip), vehicle: carboxymethylcellulose (CMC) 107 % of control | dose: 50.0 mg/kg/injection, schedule: Q01DX009 (ip), vehicle: carboxymethylcellulose (CMC) 100 % of control and 91 % of control | dose: 50.0 mg/kg/injection, schedule: Q04DX002 (ip), vehicle: carboxymethylcellulose (CMC) 101 % of control and 103 % of control | dose: 50.0 mg/kg/injection, schedule: Q04DX003 (ip), vehicle: carboxymethylcellulose (CMC) 95 % of control | [4] 93 % of control | dose: 100.0 mg/kg/injection, schedule: Q04DX002 (ip), vehicle: carboxymethylcellulose (CMC) 95 % of control and 108 % of control | dose: 100.0 mg/kg/injection, schedule: Q04DX003 (ip), vehicle: carboxymethylcellulose (CMC) 95 % of control

COc1ccccc1C1CC(C(C)(C)C)CCC1OS(=O)(=O)c1ccc(C)cc1 (stereo not drawn)
inactive: dose: 50.0 mg/kg/injection, schedule: Q01DX009 (ip), vehicle: saline 90 % of control | dose: 100.0 mg/kg/injection, schedule: Q01DX009 (ip), vehicle: saline 92 % of control | dose: 100.0 mg/kg/injection, schedule: Q04DX003 (ip), vehicle: acetone 102 % of control | dose: 200.0 mg/kg/injection, schedule: Q01DX009 (ip), vehicle: saline 95 % of control | dose: 200.0 mg/kg/injection, schedule: Q04DX003 (ip), vehicle: acetone 96 % of control | dose: 400.0 mg/kg/injection, schedule: Q04DX003 (ip), vehicle: acetone 94 % of control

O=S(NOCCCCONS(=O)c1ccccc1)c1ccccc1 (stereo not drawn)
inactive: dose: 25.0 mg/kg/injection, schedule: Q01DX001 (ip), vehicle: saline with Tween-80 100 % of control | [5] 93 % of control | dose: 50.0 mg/kg/injection, schedule: Q01DX001 (ip), vehicle: saline with Tween-80 95 % of control | [6] 94 % of control and 102 % of control | [7] 96 % of control | dose: 100.0 mg/kg/injection, schedule: Q01DX001 (ip), vehicle: saline with Tween-80 95 % of control and 90 % of control | dose: 100.0 mg/kg/injection, schedule: Q01DX009 (ip), vehicle: saline with Tween-80 95 % of control and 96 % of control | dose: 100.0 mg/kg/injection, schedule: Q04DX002 (ip), vehicle: saline with Tween-80 98 % of control and 89 % of control | [8] 89 % of control | dose: 200.0 mg/kg/injection, schedule: Q01DX001 (ip), vehicle: saline with Tween-80 90 % of control | dose: 200.0 mg/kg/injection, schedule: Q01DX009 (ip), vehicle: saline with Tween-80 96 % of control and 92 % of control | dose: 200.0 mg/kg/injection, schedule: Q04DX002 (ip), vehicle: saline with Tween-80 100 % of control and 91 % of control | dose: 200.0 mg/kg/injection, schedule: Q04DX003 (ip), vehicle: saline with Tween-80 94 % of control | dose: 400.0 mg/kg/injection, schedule: Q01DX009 (ip), vehicle: saline with Tween-80 90 % of control | dose: 400.0 mg/kg/injection, schedule: Q04DX002 (ip), vehicle: saline with Tween-80 102 % of control

Cc1ccc(NC(=O)Nc2ccc(C3=NCCN3)cc2)cc1NC(=O)Nc1ccc(C2=NCCN2)cc1
inactive: dose: 2.25 mg/kg/injection, schedule: Q01DX Z (ip), vehicle: water 105 % of control | dose: 4.5 mg/kg/injection, schedule: Q01DX Z (ip), vehicle: water 102 % of control | dose: 9.0 mg/kg/injection, schedule: Q01DX Z (ip), vehicle: water 92 % of control | dose: 18.0 mg/kg/injection, schedule: Q01DX Z (ip), vehicle: water 100 % of control

CCCC(NCc1ccccc1)C(=O)O (stereo not drawn)
inactive: dose: 100.0 mg/kg/injection, schedule: Q01DX009 (ip), vehicle: acetone 90 % of control | dose: 200.0 mg/kg/injection, schedule: Q01DX009 (ip), vehicle: acetone 90 % of control | dose: 400.0 mg/kg/injection, schedule: Q01DX009 (ip), vehicle: acetone 90 % of control

CC1(C)OC2OC(COC(=O)c3ccccc3)C(=O)C2O1 (stereo not drawn)
inactive: [9] 101 % of control | [10] 106 % of control | [11] 101 % of control | [12] 98 % of control

CCCC[S][Sn-]([CH2]CCC)([CH2]CCC)[CH2]CCC
inactive: dose: 6.25 mg/kg/injection, schedule: Q04DX003 (ip), vehicle: saline with Tween-80 101 % of control | dose: 12.5 mg/kg/injection, schedule: Q04DX003 (ip), vehicle: saline with Tween-80 109 % of control | dose: 25.0 mg/kg/injection, schedule: Q04DX002 (ip), vehicle: saline with Tween-80 93 % of control | [5] 98 % of control

CCCCOP(=O)(/C=C\c1ccco1)OCCCC
inactive: [1] 91 % of control | [2] 97 % of control | [3] 92 % of control | [4] 95 % of control

O=C(O)c1c(Cl)c(Cl)cc(Cl)c1Cl
inactive: dose: 75.0 mg/kg/injection, schedule: Q01DX001 (ip), vehicle: saline 93 % of control | dose: 150.0 mg/kg/injection, schedule: Q01DX001 (ip), vehicle: saline 93 % of control | dose: 300.0 mg/kg/injection, schedule: Q01DX001 (ip), vehicle: saline 96 % of control

Oc1ccc(/C=N/Nc2nnc(N/N=C/c3ccc(O)c(O)c3)c3ccccc23)cc1O
inactive: [9] 97 % of control | [10] 92 % of control | [11] 97 % of control | [12] 97 % of control

CC1=CCC=C(CNc2ncnc3nc[nH]c23)C1
inactive: dose: 25.0 mg/kg/injection, schedule: Q01DX009 (ip), vehicle: saline with Tween-80 95 % of control | [5] 94 % of control | [6] 93 % of control | [7] 97 % of control | [8] 101 % of control

CCC1(CCC(C)C)C(=O)NC(=S)N(C)C1=O (stereo not drawn)
inactive: dose: 75.0 mg/kg/injection, schedule: Q01DX001 (ip), vehicle: carboxymethylcellulose (CMC) 89 % of control | dose: 75.0 mg/kg/injection, schedule: Q01DX001 (ip), vehicle: other 97 % of control | dose: 150.0 mg/kg/injection, schedule: Q01DX001 (ip), vehicle: carboxymethylcellulose (CMC) 89 % of control | dose: 150.0 mg/kg/injection, schedule: Q01DX001 (ip), vehicle: other 103 % of control | dose: 300.0 mg/kg/injection, schedule: Q01DX001 (ip), vehicle: carboxymethylcellulose (CMC) 91 % of control | dose: 300.0 mg/kg/injection, schedule: Q01DX001 (ip), vehicle: other 121 % of control
